Assay results published in patent publication US4101656A, “7β-Acylamino-3-(alkanesulfonamidoalkyl substituted tetrazolylthiomethyl) cephalosporins, antibacterial compositions containing them and methods of treating bacterial infections with them” (Smithkline Corporation, priority 1976, dated 1978).
≈ marks a conversion by molar mass, not a printed value. Read-outs that look alike come from different tables or passages of the source.

Key:
S. aureus HH 127 = assay: in vitro MIC testing, S. aureus HH 127; format: cell-based
Description: (§1) The compounds of Formula I have exceptional antibacterial activity against both Gram-positive and Gram-negative organisms. Minimum inhibitory concentrations (MIC's) range from 0.2 to >200 μg/ml in in vitro testing. Test results for the compound 7β-D-mandelamido-3-[1-(2-methanesulfonamidoethyl)tetrazol-5-ylthiomethyl]-3-cephem-4-carboxylic acid sodium salt hydrate (Compound A) are given below: […]

S. aureus SK 23390 = assay: in vitro MIC testing, S. aureus SK 23390; format: cell-based
Description: as §1

Strep. faecalis HH 34358 = assay: in vitro MIC testing, Strep. faecalis HH 34358; format: cell-based
Description: as §1

E. coli SK 12140 = assay: in vitro MIC testing, E. coli SK 12140; format: cell-based; settings: Escherichia coli, SK12140
Description: as §1

E. coli HH 33779 = assay: in vitro MIC testing, E. coli HH 33779; format: cell-based
Description: as §1

Kleb. pneumo. SK 4200 = assay: in vitro MIC testing, Kleb. pneumo. SK 4200; format: cell-based
Description: as §1

Kleb. pneumo. SK 1200 = assay: in vitro MIC testing, Kleb. pneumo. SK 1200; format: cell-based
Description: as §1

Salmonella ATCC 12176 = assay: in vitro MIC testing, Salmonella ATCC 12176; format: cell-based; settings: ATCC12176, two values given
Description: as §1

Shigella HH 117 = assay: in vitro MIC testing, Shigella HH 117; format: cell-based; settings: HH117
Description: as §1

Pseudo. aerug. HH 63 = assay: in vitro MIC testing, Pseudo. aerug. HH 63; format: cell-based
Description: as §1

[1] = test system: Serratia marc. ATCC 13880; assay: in vitro MIC testing, Serratia marc. ATCC 13880; format: cell-based; settings: ATCC13880, two values given
Description: as §1

Proteus morgani 179 = assay: in vitro MIC testing, Proteus morgani 179; format: cell-based; settings: two values given
Description: as §1

Entero aerog. ATCC 13048 = assay: in vitro MIC testing, Entero aerog. ATCC 13048; format: cell-based; settings: two values given
Description: as §1

Entero. cloacae HH 31254 = assay: in vitro MIC testing, Entero. cloacae HH 31254; format: cell-based; settings: Enterobacter cloacae, HH31254
Description: as §1

Proteus mirabilis 444 = assay: in vitro MIC testing, Proteus mirabilis 444; format: cell-based
Description: as §1

E. coli 12140 = assay: in vivo mouse protection test, E. coli 12140
Description: (§2) 4200 upon subcutaneous injection; cefazolin gave results of 4 mg/kg against E. coli 12140 and 11.3 mg/kg against Kleb. pneumo. 4200 upon subcutaneous administration.

Kleb. pneumo. 4200 = assay: in vivo mouse protection test, Kleb. pneumo. 4200; settings: sc
Description: as §2

[2] = two values given, sodium salt hydrate

In the case of `Cc1nnc(SCC2=C(C(=O)O)N3C(=O)[C@@H](NC(=O)Cn4cnnn4)[C@H]3SC2)s1` [Cefazolin, reference compound], the MIC (S. aureus HH 127; Staphylococcus aureus, HH127, two values given, read-out: MIC) is reported as 0.4 µg/mL (≈ 0.88 µM), the MIC (S. aureus SK 23390; Staphylococcus aureus, SK23390, two values given, read-out: MIC) is reported as 0.2 µg/mL (≈ 0.44 µM) and the MIC (Strep. faecalis HH 34358; Enterococcus faecalis, HH34358, two values given, read-out: MIC) is reported as 6.3 µg/mL (≈ 13.9 µM). It also gave an MIC (E. coli SK 12140; E. coli SK 12140, two values given, read-out: MIC) of 0.8 µg/mL (≈ 1.76 µM), an MIC (E. coli HH 33779; Escherichia coli, HH33779, two values given, read-out: MIC) of 1.6 µg/mL (≈ 3.52 µM) and an MIC (Kleb. pneumo. SK 4200; Kleb. pneumo. SK 4200, two values given, read-out: MIC) of 1.6 µg/mL (≈ 3.52 µM). The MIC (Kleb. pneumo. SK 1200; Kleb. pneumo. SK 1200, two values given, read-out: MIC) was 0.8 µg/mL (≈ 1.76 µM), the MIC (Salmonella ATCC 12176) was 0.8 µg/mL (≈ 1.76 µM) and the MIC (Shigella HH 117) was 0.4 µg/mL (≈ 0.88 µM). For the same compound, the MIC (Pseudo. aerug. HH 63; Pseudo. aerug. HH 63, two values given, read-out: MIC) was > 200 µg/mL, the MIC [1] was > 200 µg/mL and the MIC (Proteus morgani 179; read-out: MIC) was 200 µg/mL (≈ 440 µM). The MIC (Entero aerog. ATCC 13048; read-out: MIC) was 1.6 µg/mL (≈ 3.52 µM), the MIC (Entero. cloacae HH 31254; Entero. cloacae HH 31254, two values given, read-out: MIC) was 0.8 µg/mL (≈ 1.76 µM) and the MIC (Proteus mirabilis 444; read-out: MIC) was 3.1 µg/mL (≈ 6.82 µM). For the same compound, the ED50 (E. coli 12140; Escherichia coli, sc, mouse protection, E. coli 12140, subcutaneous, read-out: ED50) was 4 mg/kg and the ED50 (Kleb. pneumo. 4200; mouse protection, Kleb. pneumo. 4200, subcutaneous, read-out: ED50) was 11.3 mg/kg.

For `CS(=O)(=O)NCCn1nnnc1SCC1=C(C(=O)[O-])N2C(=O)[C@@H](NC(=O)[C@H](O)c3ccccc3)[C@H]2SC1.O.[Na+]` [Compound A, 7β-D-mandelamido-3-[1-(2-methanesulfonamidoethyl)tetrazol-5-ylthiomethyl]-3-cephem-4-carboxylic acid sodium salt hydrate], the MIC (S. aureus HH 127; Staphylococcus aureus, HH127, two values given) was 3.1 µg/mL, the MIC (S. aureus HH 127; [2]) was 1.6 µg/mL and the MIC (S. aureus SK 23390; Staphylococcus aureus, SK23390, two values given) was 0.8 µg/mL. It also gave an MIC (S. aureus SK 23390; [2]) of 0.4 µg/mL, an MIC (Strep. faecalis HH 34358; Enterococcus faecalis, HH34358, two values given) of 25 µg/mL and an MIC (Strep. faecalis HH 34358; [2]) of 12.5 µg/mL. The MIC (E. coli SK 12140) was 0.8 µg/mL, the MIC (E. coli HH 33779; Escherichia coli, HH33779, two values given) was 1.6 µg/mL and the MIC (E. coli HH 33779; [2]) was 0.8 µg/mL. It also gave an MIC (Kleb. pneumo. SK 4200) of 0.4 µg/mL, an MIC (Kleb. pneumo. SK 1200) of 0.4 µg/mL and an MIC (Salmonella ATCC 12176) of 0.4 µg/mL. For the same compound, the MIC (Shigella HH 117) was 0.2 µg/mL, the MIC (Pseudo. aerug. HH 63) was > 200 µg/mL and the MIC (Proteus morgani 179) was 1.6 µg/mL. For the same compound, the MIC (Proteus morgani 179; sodium salt hydrate) was 0.8 µg/mL, the MIC (Entero aerog. ATCC 13048) was 1.6 µg/mL and the MIC (Entero aerog. ATCC 13048; sodium salt hydrate) was 0.8 µg/mL. For the same compound, the MIC (Entero. cloacae HH 31254) was 0.8 µg/mL, the MIC (Proteus mirabilis 444) was 0.8 µg/mL and the ED50 (E. coli 12140; Escherichia coli, 12140, sc) was 0.39 mg/kg. For the same compound, the ED50 (Kleb. pneumo. 4200; Mus musculus) was 2.44 mg/kg.
